What was measured:
[1] = tested on: allergen-induced histamine release; experiment: Allergen-induced histamine release from sensitized human tissue; type: cell-based
[2] = tested on: allergen-induced histamine release; experiment: Allergen-induced histamine release from sensitized guinea pig tissue; type: cell-based
[3] = tested on: anaphylactic bronchospasm; experiment: Inhibition of anaphylactic bronchospasm in sensitized guinea pigs with antigen-induced bronchoconstriction; type: in vivo; conditions: oral dose of 5 mg/kg
Method: The anti-allergy method of this invention is identified by tests which measure a compound's inhibition of anaphylactic bronchospasm in sensitized guinea pigs having antigen-induced bronchoconstriction. […] The compounds are effective non-adrenergic, non-anticholinergic antianaphylactic agents. When administered orally they are active at doses from about 0.1 to 50 mg/kg of body weight; when administered parenterally, e.g., intravenously, the compounds are active at dosages of from about 0.01 to 5 mg/kg body weight; when administered by inhalation (aerosol or nebulizer) the compounds are active at dosages of about 0.1 to 5 mg per puff, and one to four puffs may be taken every 4 hours.

## O=C1c2cccnc2N(c2ccccc2)C(=O)C12CCCCO2 (stereo not drawn) [1-phenyl-3',4',5',6'-tetrahydro-spiro[1,8-naphthyridine-3,2'-(2H)pyran]-2,4-dione]
[1]
  inhibition of allergen-induced histamine release: inhibit allergen-induced histamine release
[2]
  inhibition of allergen-induced histamine release: inhibit allergen-induced histamine release
[3]
  inhibition of anaphylactic bronchospasms: inhibit anaphylactic bronchospasms

Reference: patent publication EP0144996A2, “Substituted spiro pyridine derivatives, pharmaceutical compositions containing them and processes for the preparation of such compounds and compositions” (SCHERING CORPORATION, priority 1983, dated 1985)
